Patent publication US8497371B2, “Pipemidic acid derivative autotaxin inhibitors” (University of Memphis Research Foundation, priority 2009, dated 2013)

What was measured:
Type in all cases: biochemical
ATX = ATX (Homo sapiens, UniProt Q13822); assay: ATX inhibition assay with FS-3 substrate; parameters: conditioned serum-free medium (CCM) from MDA-MB-435 cells as the source of ATX; endogenous in cells; host or cells: MDA-MB-435 cells (about 10x concentrated serum-free conditioned medium); conditions: for % Response at 10 μM (FS-3): 10 μM compound, FS-3 hydrolysis normalized to vehicle control (low = strong inhibition), mean ± S.D.; for single dose response comparison by aromatic substituent and position: Table 2, same values as % Response at 10 μM
Description: ATX inhibition was assayed using the substrate FS-3 (Echelon Biosciences, Inc., Salt Lake City, Utah, USA). The FS-3 assay used ˜10 times concentrated conditioned serum-free medium (CCM) from MDA-MB-435 cells as the source of ATX, while CCM comprised one-third of the total volume.
All assays were performed in 96-well plates with data read at 1 minute intervals by a Synergy2 system (BioTek, Winooski, Vt.). […] Results are shown at one hour, at which point all fluorescence and absorbance changes as a function of time were linear. All readings were normalized to vehicle control after subtraction of fluorescence in the absence of CCM. Data are shown as the mean±S.D. of at least three wells. All experiments were repeated at least twice and results are shown.

human NPP7 = target: T1, human NPP7 (Homo sapiens, UniProt Q6UWV6); assay: Determination of NPP7 inhibition (pNPPC substrate); conditions: 10 μM inhibitor
T1 construct: transfected with human NPP6ex^51 or human NPP7ex expression plasmids; made in house; host or cells: HEK293 cells, transient transfection, pcDNA3.1(+); conditioned medium concentrated about 10x (CCM)
T1 sequence (Q6UWV6 22-433 limits assumed): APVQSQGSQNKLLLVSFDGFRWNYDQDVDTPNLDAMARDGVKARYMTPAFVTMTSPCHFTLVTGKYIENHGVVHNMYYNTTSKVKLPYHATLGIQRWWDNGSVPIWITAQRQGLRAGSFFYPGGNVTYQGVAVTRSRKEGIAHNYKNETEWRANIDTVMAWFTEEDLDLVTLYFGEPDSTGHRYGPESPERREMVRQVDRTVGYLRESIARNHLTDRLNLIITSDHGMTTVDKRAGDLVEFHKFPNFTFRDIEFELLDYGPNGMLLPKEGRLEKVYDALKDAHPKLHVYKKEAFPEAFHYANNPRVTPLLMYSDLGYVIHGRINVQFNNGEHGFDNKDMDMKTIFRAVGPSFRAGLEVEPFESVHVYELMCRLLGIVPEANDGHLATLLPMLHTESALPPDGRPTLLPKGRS
Description: (§1) Inhibitor selectivity was assayed using p-nitrophenylphosphoryl-choline (pNPPC) (Sigma-Aldrich, St. Louis, Mo.) as substrate for NPP6 and NPP7. The final volume (60 μL) included 20 μL (CM, NPP6 or CCM, NPP7, 20 μL inhibitor (10 μM including 1% DMSO) in assay buffer, and 20 μL pNPPC (10 mM, NPP6 or 1 NPP7) in assay buffer. NPP6 assay buffer contained 500 mM NaCl, 0.05% Triton X-100, 100 mM Tris-HCl (pH 9.0), whereas NPP7 assay buffer was comprised of 50 mM Tris HCl, pH 8.5, 150 mM NaCl, and 10 mM taurocholic acid. However, unlike the published methods, EDTA was not added to the NPP7 assay buffer. All assays were performed in 96-well, half area plates (Corning Inc., Lowell, Mass.) at 37° C. with data collected at 2 minute intervals using a Synergy2 absorbance plate reader (BioTek, Winooski, Vt.). Results are shown at the one hour time point, when all absorbance changes as a function of time were linear. Readings were normalized to vehicle control after subtraction of absorbance in the absence of CM or CCM. Data are shown as the mean±S.D. of at least three wells. All experiments were repeated twice and representative results are shown.
(§2) Assays were performed with CM or CCM from HEK293 cells transiently transfected with NPP6 and 7 expression plasmids, respectively. HEK293 cells were seeded in Dulbecco's modified Eagle's medium (DMEM) containing 10% fetal bovine serum, 100 U/ml penicillin, 100 μg/ml streptomycin (Hyclone, Logan, Utah), and 2 mM L-glutamine. HEK293 cells were grown overnight at 37° C. under 5% CO2 to 80% confluence. The cells were then transfected with human NPP6ex^51 or human NPP7ex expression plasmids in the pcDNA3.1(+) mammalian vector in the presence of Polyfect Transfection Reagent (Hyclone, Logan, Utah). Six hours after transfection, the culture medium was changed to serum free DMEM containing L-glutamine and cells were incubated for 48 hours. Expressed protein was collected (NPP6 and NPP7) and concentrated ˜10×(NPP7) using 10 kDa molecular weight cutoff filters (Millipore, Beverly, Mass.) in an Amicon pressure cell (Millipore, Beverly, Mass.).

human NPP6 = target: T2, human NPP6 (Homo sapiens, UniProt Q6UWR7); assay: Determination of NPP6 inhibition (pNPPC substrate); conditions: 10 μM inhibitor
T2 construct: transfected with human NPP6ex^51 or human NPP7ex expression plasmids; made in house; host or cells: HEK293 cells, transient transfection, pcDNA3.1(+); unconcentrated conditioned medium (CM)
T2 sequence (Q6UWR7 23-419 limits assumed): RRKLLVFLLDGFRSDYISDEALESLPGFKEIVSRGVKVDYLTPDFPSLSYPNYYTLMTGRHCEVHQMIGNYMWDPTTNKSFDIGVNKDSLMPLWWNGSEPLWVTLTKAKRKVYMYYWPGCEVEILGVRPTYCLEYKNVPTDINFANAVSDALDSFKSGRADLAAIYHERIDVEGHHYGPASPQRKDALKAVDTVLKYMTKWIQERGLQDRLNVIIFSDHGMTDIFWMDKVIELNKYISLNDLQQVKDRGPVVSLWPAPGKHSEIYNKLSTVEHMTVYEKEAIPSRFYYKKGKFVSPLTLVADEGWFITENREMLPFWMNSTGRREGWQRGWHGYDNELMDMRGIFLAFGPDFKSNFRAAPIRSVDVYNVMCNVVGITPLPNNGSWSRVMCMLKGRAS
Description: as §1, §2

Compound | % Response at 10 μM (FS-3) (ATX) [%] | single dose response comparison by aromatic substituent and position (ATX) | further results
2-(4-{[(4-dimethylaminonapthylphenyl)amino]carbonothioyl}-1-piperazinyl)-8-ethyl-5-oxo-5,8-dihydropyrido[2,3-d]pyrimidine-6-carboxylic acid [Compound 2] | 59.9 ± 1.5 |  | 
CCn1cc(C(=O)O)c(=O)c2cnc(N3CCN(C(=S)Nc4ccc(C(=O)O)cc4)CC3)nc21 [Compound 4, 2-(4-{[(4-carboxylphenyl)amino]carbonothioyl}-1-piperazinyl)-8-ethyl-5-oxo-5,8-dihydropyrido[2,3-d]pyrimidine-6-carboxylic acid] | 72.7 ± 2.2 |  | 
CCn1cc(C(=O)O)c(=O)c2cnc(N3CCN(C(=S)Nc4ccccc4C(=O)OC)CC3)nc21 [Compound 5, 2-(4-{[(2-methylesterphenyl)amino]carbonothioyl}-1-piperazinyl)-8-ethyl-5-oxo-5,8-dihydropyrido[2,3-d]pyrimidine-6-carboxylic acid] | 51.2 ± 1.3 |  | 
CCn1cc(C(=O)O)c(=O)c2cnc(N3CCN(C(=S)Nc4ccc(S(=O)(=O)N5CCOCC5)cc4)CC3)nc21 [Compound 6, 2-(4-{[(4-morpholinosulfonylphenyl)amino]carbonothioyl}-1-piperazinyl)-8-ethyl-5-oxo-5,8-dihydropyrido[2,3-d]pyrimidine-6-carboxylic acid] | 64.1 ± 2.8 |  | 
CCn1cc(C(=O)O)c(=O)c2cnc(N3CCN(C(=S)Nc4c(C)cc(C)cc4C)CC3)nc21 [Compound 8, 2-(4-{[(2,4,6-mesitylphenyl)amino]carbonothioyl}-1-piperazinyl)-8-ethyl-5-oxo-5,8-dihydropyrido[2,3-d]pyrimidine-6-carboxylic acid] | 53.5 ± 1.6 |  | 
CCn1cc(C(=O)O)c(=O)c2cnc(N3CCN(C(=S)Nc4ccc(-n5cccn5)cc4)CC3)nc21 [Compound 9, 2-(4-{[(4-pyrazolephenyl)amino]carbonothioyl}-1-piperazinyl)-8-ethyl-5-oxo-5,8-dihydropyrido[2,3-d]pyrimidine-6-carboxylic acid] | 68.6 ± 1.1 |  | 
CCn1cc(C(=O)O)c(=O)c2cnc(N3CCN(C(=S)Nc4ccccc4-c4cccc5nsnc45)CC3)nc21 [Compound 10, 2-(4-{[(2-benzothiadiazolphenyl)amino]carbonothioyl}-1-piperazinyl)-8-ethyl-5-oxo-5,8-dihydropyrido[2,3-d]pyrimidine-6-carboxylic acid] | 63.2 ± 2.8 |  | 
CCn1cc(C(=O)O)c(=O)c2cnc(N3CCN(C(=S)Nc4ccccc4C(F)(F)F)CC3)nc21 [Compound 12, 2-(4-{[(2-trifluoromethylphenyl)amino]carbonothioyl}-1-piperazinyl)-8-ethyl-5-oxo-5,8-dihydropyrido[2,3-d]pyrimidine-6-carboxylic acid] | 100.8 ± 1.9 | 100.8 ± 1.9 | 
CCn1cc(C(=O)O)c(=O)c2cnc(N3CCN(C(=S)Nc4cccc(Cl)c4Cl)CC3)nc21 [Compound 15, 2-(4-{[(2,3-dichlorophenyl)amino]carbonothioyl}-1-piperazinyl)-8-ethyl-5-oxo-5,8-dihydropyrido[2,3-d]pyrimidine-6-carboxylic acid] | 72.3 ± 0.4 |  | 
CCn1cc(C(=O)Oc2ccccc2)c(=O)c2cnc(N3CCN(C(=S)Nc4ccccc4)CC3)nc21 [Compound 16, 2-(4-{[(phenyl)amino]carbonothioyl}-1-piperazinyl)-8-ethyl-5-oxo-5,8-dihydropyrido[2,3-d]pyrimidine-6-carboxylic acid phenyl] | 56.4 ± 1.0 |  | 
CCn1cc(C(=O)O)c(=O)c2cnc(N3CCN(C(=S)Nc4ccccc4Cl)CC3)nc21 [Compound 17, 2-(4-{[(2-chlorophenyl)amino]carbonothioyl}-1-piperazinyl)-8-ethyl-5-oxo-5,8-dihydropyrido[2,3-d]pyrimidine-6-carboxylic acid] | 83.5 ± 8.2 | 83.5 ± 8.2 | 
CCn1cc(C(=O)O)c(=O)c2cnc(N3CCN(C(=S)Nc4cccc(OC)c4)CC3)nc21 [Compound 19, 2-(4-{[(3-methoxyphenyl)amino]carbonothioyl}-1-piperazinyl)-8-ethyl-5-oxo-5,8-dihydropyrido[2,3-d]pyrimidine-6-carboxylic acid] | 40.9 ± 1.3 | 40.9 ± 1.3 | effect on activity of NPP7 (human NPP7): None of the compounds affected the activity; effect on activity of NPP6 (human NPP6): None of the compounds affected the activity; IC50 (ATX; FS-3 substrate): 17.7 ± 0.3 µM; inhibition at 10 µM (ATX; single dose 10 μM, % inhibition, read-out: inhibition of ATX-mediated hydrolysis of FS-3): ≥ 50%
CCn1cc(C(=O)O)c(=O)c2cnc(N3CCN(C(=S)Nc4ccccc4OC)CC3)nc21 [Compound 21, 2-(4-{[(2-methoxyphenyl)amino]carbonothioyl}-1-piperazinyl)-8-ethyl-5-oxo-5,8-dihydropyrido[2,3-d]pyrimidine-6-carboxylic acid] | 97.6 ± 1.8 | 97.6 ± 1.8 | 
CCn1cc(C(=O)O)c(=O)c2cnc(N3CCN(C(=S)Nc4ccc(OC)cc4)CC3)nc21 [Compound 24, 2-(4-{[(4-methoxyphenyl)amino]carbonothioyl}-1-piperazinyl)-8-ethyl-5-oxo-5,8-dihydropyrido[2,3-d]pyrimidine-6-carboxylic acid] | 79.7 ± 0.9 | 79.7 ± 0.9 | 
CCn1cc(C(=O)O)c(=O)c2cnc(N3CCN(C(=S)Nc4ccccc4I)CC3)nc21 [Compound 26, 2-(4-{[(2-iodophenyl)amino]carbonothioyl}-1-piperazinyl)-8-ethyl-5-oxo-5,8-dihydropyrido[2,3-d]pyrimidine-6-carboxylic acid] | 68.4 ± 1.3 | 68.4 ± 1.3 | 
CCn1cc(C(=O)O)c(=O)c2cnc(N3CCN(C(=S)Nc4ccccc4F)CC3)nc21 [Compound 30, 2-(4-{[(2-fluorophenyl)amino]carbonothioyl}-1-piperazinyl)-8-ethyl-5-oxo-5,8-dihydropyrido[2,3-d]pyrimidine-6-carboxylic acid] | 77.3 ± 1.6 | 77.3 ± 1.6 | 
